The text below walks through data of patent US10562850B2, “Human plasma kallikrein inhibitors” (priority 2015, dated 2020).

The term Ki denotes a dissociation constant, usually derived from enzyme kinetics or from competition with a known ligand. Read a low Ki as a stronger hold on the target.

Some results are limits rather than exact numbers.

Sequence of human plasma kallikrein (P03952 391-638): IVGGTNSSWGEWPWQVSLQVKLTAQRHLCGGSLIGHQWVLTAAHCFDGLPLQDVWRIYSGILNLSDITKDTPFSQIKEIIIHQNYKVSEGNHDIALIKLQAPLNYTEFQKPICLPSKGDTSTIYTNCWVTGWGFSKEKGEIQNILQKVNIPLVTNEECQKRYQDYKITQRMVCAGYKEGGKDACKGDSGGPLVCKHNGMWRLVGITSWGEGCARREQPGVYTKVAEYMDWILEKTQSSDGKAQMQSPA
Sequence of human plasma kallikrein (P03952 20-390 partner): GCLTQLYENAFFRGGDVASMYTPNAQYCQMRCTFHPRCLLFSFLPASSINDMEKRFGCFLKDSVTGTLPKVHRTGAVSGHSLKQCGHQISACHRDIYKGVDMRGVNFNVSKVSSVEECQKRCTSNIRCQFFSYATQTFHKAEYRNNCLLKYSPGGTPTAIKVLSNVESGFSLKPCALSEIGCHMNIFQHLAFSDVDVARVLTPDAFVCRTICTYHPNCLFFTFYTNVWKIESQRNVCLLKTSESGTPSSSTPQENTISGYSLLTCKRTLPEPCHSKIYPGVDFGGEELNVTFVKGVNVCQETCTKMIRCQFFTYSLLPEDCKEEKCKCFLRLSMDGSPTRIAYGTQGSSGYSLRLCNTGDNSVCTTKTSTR

This assay has as its target human plasma kallikrein (Homo sapiens (Human), UniProt P03952). Kind of assay: Plasma Kallikrein Activity Assay (chromogenic substrate S2302). It counts as biochemical. Conditions: 2 nM kallikrein, 80 μM S2302, 30° C., pH 7.8; Cheng-Prusoff. The essentials: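 2 nM human plasma kallikrein incubated at 30° C with 80 μM S2302 and increasing compound concentrations in 50 mM Tris-HCl pH 7.8, 200 mM NaCl, 2.5 mM CaCl2. Activity read as absorbance change at 405 nm; four-parameter logistic fit, Ki by Cheng-Prusoff.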
For the compound `CO[C@@H]1C[C@H](C(=O)Nc2cc(C(N)(CCC3CC3)c3ccncc3)ccc2F)N(C(=O)Nc2ccc(Cl)cc2)C1` (stereo partly drawn) [Compound 71a, (2R,4R)-N2-(5-((+)-1-amino-3-cyclopropyl-1-(pyridin-4-yl)propyl)-2-fluorophenyl)-N1-(4-chlorophenyl)-4-methoxypyrrolidine-1,2-dicarboxamide], the Ki was < 50 nM. Consider `NC(CCC1CC1)(c1ccncc1)c1ccc(F)c(NC(=O)[C@H]2C[C@@H](O)CN2C(=O)Nc2ccc(Cl)cn2)c1` (stereo partly drawn) [Compound 72c, (2R,4R)-N2-(5-((+)-1-amino-3-cyclopropyl-1-(pyridin-4-yl)propyl)-2-fluorophenyl)-N1-(5-chloropyridin-2-yl)-4-hydroxypyrrolidine-1,2-dicarboxamide], for which the Ki is < 50 nM. As for `CO[C@@H]1C[C@H](C(=O)Nc2cc(C(CCC3CC3)(NC(C)=O)c3ccncc3)ccc2F)N(C(=O)Nc2ccc(Cl)cn2)C1` (stereo partly drawn) [Compound 73a, (2R,4R)-N2-(5-((+)-1-acetamido-3-cyclopropyl-1-(pyridin-4-yl)propyl)-2-fluorophenyl)-N1-(5-chloropyridin-2-yl)-4-methoxypyrrolidine-1,2-dicarboxamide], the Ki was < 50 nM. The same measure for `CO[C@@H]1C[C@H](C(=O)Nc2cc(C(CCC3CC3)(NS(C)(=O)=O)c3ccncc3)ccc2F)N(C(=O)Nc2ccc(Cl)cn2)C1` (stereo partly drawn) [Compound 74a, (2R,4R)-N1-(5-chloropyridin-2-yl)-N2-(5-((+)-3-cyclopropyl-1-(methylsulfonamido)-1-(pyridin-4-yl)propyl)-2-fluorophenyl)-4-methoxypyrrolidine-1,2-dicarboxamide]: < 50 nM; for `CO[C@@H]1C[C@H](C(=O)Nc2cccc(C(N)(CCC3CC3)c3ccncc3)c2)N(C(=O)Nc2ccc(Cl)cn2)C1` (stereo partly drawn) [Compound 75e, (2R,4R)-N2-(3-((+)-1-amino-3-cyclopropyl-1-(pyridin-4-yl)propyl)phenyl)-N1-(5-chloropyridin-2-yl)-4-methoxypyrrolidine-1,2-dicarboxamide]: < 50 nM. On to `CO[C@@H]1C[C@H](C(=O)Nc2cc(C(N)(CCC3CC3)c3ccncc3)ccc2F)N(C(=O)Cc2ccc(Cl)cc2)C1` (stereo partly drawn) [Compound 76e, (2R,4R)-N-(5-((+)-1-amino-3-cyclopropyl-1-(pyridin-4-yl)propyl)-2-fluorophenyl)-1-(2-(4-chlorophenyl)acetyl)-4-methoxypyrrolidine-2-carboxamide], for which the Ki was > 100 nM. On to `CCNC(CCC1CC1)(c1ccncc1)c1ccc(F)c(NC(=O)[C@H]2C[C@@H](OC)CN2C(=O)Nc2ccc(Cl)cn2)c1` (stereo partly drawn) [Compound 77a, (2R,4R)-N1-(5-chloropyridin-2-yl)-N2-(5-((+)-3-cyclopropyl-1-(ethylamino)-1-(pyridin-4-yl)propyl)-2-fluorophenyl)-4-methoxypyrrolidine-1,2-dicarboxamide], for which the Ki was < 50 nM.

With `CCNC(CCC1CC1)(c1ccnc(C)c1)c1ccc(F)c(NC(=O)[C@H]2C[C@@H](OC)CN2C(=O)Nc2ccc(Cl)cn2)c1` (stereo partly drawn) [Compound 78a, (2R,4R)-N1-(5-chloropyridin-2-yl)-N2-(5-((+)-3-cyclopropyl-1-(ethylamino)-1-(2-methylpyridin-4-yl)propyl)-2-fluorophenyl)-4-methoxypyrrolidine-1,2-dicarboxamide], the Ki was < 50 nM. The same measure for `CNC(CCC1CC1)(c1ccnc(C)c1)c1ccc(F)c(NC(=O)[C@H]2C[C@@H](OC)CN2C(=O)Nc2ccc(Cl)cn2)c1` (stereo partly drawn) [Compound 79a, (2R,4R)-N1-(5-chloropyridin-2-yl)-N2-(5-((+)-3-cyclopropyl-1-(methylamino)-1-(2-methylpyridin-4-yl)propyl)-2-fluorophenyl)-4-methoxypyrrolidine-1,2-dicarboxamide]: < 50 nM. The same measure for `NC(CCC1CC1)(c1ccncc1)c1ccc(F)c(NC(=O)[C@H]2C[C@H]3C[C@H]3N2)c1` (stereo partly drawn) [Compound 80c, (1R,3R,5R)-N-(5-((+)-1-amino-3-cyclopropyl-1-(pyridin-4-yl)propyl)-2-fluorophenyl)-2-azabicyclo[3.1.0]hexane-3-carboxamide]: 50 to 100 nM. The result for `CO[C@@H]1C[C@H](C(=O)Nc2cc(C(N)(CCC3CC3)c3ccncc3)ccc2F)N(C(=O)Nc2ccc(Cl)s2)C1` (stereo partly drawn) [Compound 81h, (2R,4R)-N2-(5-((−)-1-amino-3-cyclopropyl-1-(pyridin-4-yl)propyl)-2-fluorophenyl)-N1-(5-chlorothiophen-2-yl)-4-methoxypyrrolidine-1,2-dicarboxamide] reads < 50 nM.

For `CO[C@@H]1C[C@H](C(=O)Nc2cc(C(N)(CCC3CC3)c3ccncc3)ccc2F)N(C(=O)c2ccc3cc[nH]c3c2)C1` (stereo partly drawn) [Compound 82a, (2R,4R)-N-(5-(-(+)-1-amino-3-cyclopropyl-1-(pyridin-4-yl)propyl)-2-fluorophenyl)-1-(1H-indole-6-carbonyl)-4-methoxypyrrolidine-2-carboxamide], the Ki was > 100 nM. The same measure for `CO[C@@H]1C[C@H](C(=O)Nc2cc(C(N)(CCC3CC3)c3ccncc3)ccc2F)N(C(=O)c2ccc3c(Cl)c[nH]c3c2)C1` (stereo partly drawn) [Compound 83a, (2R,4R)-N-(5-((+)-1-amino-3-cyclopropyl-1-(pyridin-4-yl)propyl)-2-fluorophenyl)-1-(3-chloro-1H-indole-6-carbonyl)-4-methoxypyrrolidine-2-carboxamide]: > 100 nM; for `CO[C@@H]1C[C@H](C(=O)Nc2cc(C(N)(CCC3CC3)c3ccncc3)ccc2F)N(C(=O)c2ccc(Cl)c(N)c2)C1` (stereo partly drawn) [Compound 84a, (2R,4R)-N-(5-((+)-1-amino-3-cyclopropyl-1-(pyridin-4-yl)propyl)-2-fluorophenyl)-1-(3-amino-4-chlorobenzoyl)-4-methoxypyrrolidine-2-carboxamide]: > 100 nM; for `CO[C@@H]1C[C@H](C(=O)Nc2cc(C(N)(CCC3CC3)c3ccncc3)ccc2F)N(C(=O)c2ccc(F)c(N)c2)C1` (stereo partly drawn) [Compound 85a, (2R,4R)-N-(5-((+)-1-amino-3-cyclopropyl-1-(pyridin-4-yl)propyl)-2-fluorophenyl)-1-(3-amino-4-fluorobenzoyl)-4-methoxypyrrolidine-2-carboxamide]: > 100 nM.

Consider `CO[C@@H]1C[C@H](C(=O)Nc2cc(C(N)(CCC3CC3)c3ccncc3)ccc2F)N(C(=O)c2cccc(C#N)c2)C1` (stereo partly drawn) [Compound 86a, (2R,4R)-N-(5-((+)-1-amino-3-cyclopropyl-1-(pyridin-4-yl)propyl)-2-fluorophenyl)-1-(3-cyanobenzoyl)-4-methoxypyrrolidine-2-carboxamide], for which the inhibition constant (Ki) was > 100 nM. In the case of `CO[C@@H]1C[C@H](C(=O)Nc2cc([C@](CCC3CC3)(N[S@+]([O-])C(C)(C)C)c3ccncc3)ccc2F)N(S(=O)(=O)c2ccc3cc(Cl)ccc3c2)C1` [Compound 87b, (2R,4R)-1-(6-chloronaphthalen-2-ylsulfonyl)-N-(5-((S)-3-cyclopropyl-1-((R)-1,1-dimethylethylsulfinamido)-1-(pyridin-4-yl)propyl)-2-fluorophenyl)-4-methoxypyrrolidine-2-carboxamide], the Ki is > 100 nM. The result for “(2R,4R)-N1-(4-chlorophenyl)-N2-(5-((+)-3-cyclopropyl-1-((S)-1,1-dimethylethylsulfinamido)-1-(pyridin-2-yl)propyl)-2-fluorophenyl)-4-hydroxypyrrolidine-1,2-dicarboxamide [Compound 61b]” reads < 50 nM.
